As a reminder, the IC50 is the concentration that gives 50% inhibition. High values mean a need for much substance, low ones inhibition by little substance.

The source made the active and inactive calls. The calls are words filed in the database; no cut-off is given here.

The test system of the first test is Plasmodium falciparum. Put plainly: Antimalarial activity against chloroquine-resistant ring-stage Plasmodium falciparum Dd2 incubated for 72 hrs by SYBR green1 dye-based assay.
Conditions: not given
It counts as functional, organism-based.
In the case of `COC(=O)[C@@H](O)[C@H]1C(C)(C)[C@H](OC(C)=O)C[C@@H]2O[C@]34CC(=O)O[C@@H](c5ccoc5)[C@]3(C)C[C@@H](C(=O)[C@@H]4C)[C@@]21C`, the result was inactive.
Same read-out and setting: the result for `COC(=O)[C@@H](O)[C@H]1C(C)(C)[C@H](OC(C)=O)C[C@@H]2O[C@]34CC(=O)O[C@@H](c5ccoc5)[C@]3(C)[C@@H](OC(C)=O)[C@@H](C(=O)[C@@H]4C)[C@@]21C` reads “inactive”; that for `COC(=O)[C@@H](O)[C@H]1C(C)(C)[C@H](OC(C)=O)[C@H](OC(C)=O)[C@@H]2O[C@]34CC(=O)O[C@@H](c5ccoc5)[C@]3(C)[C@@H](OC(C)=O)[C@@H](C(=O)[C@@H]4C)[C@@]21C`, “inactive”; that for `COC(=O)[C@@H](O)[C@H]1C(C)(C)[C@H](OC(C)=O)C[C@@H]2OC3=C(C)C4=CC(=O)O[C@@H](c5ccoc5)[C@]4(C)[C@@H](OC(C)=O)[C@@H]3[C@@]21C`, “inactive”.
Same read-out and setting: the entry for `C=C1C2[C@H](O)C[C@@]3(C)[C@H](c4ccoc4)CC(=O)C[C@]13O[C@H]1[C@@H](OC(=O)[C@@H](C)CC)[C@H](O)C(C)(C)[C@H](CC(=O)OC)[C@@]21C` is “inactive”; for `COC(=O)[C@@H](O)[C@H]1C(C)(C)[C@H](OC(C)=O)[C@H](OC(C)=O)[C@@H]2O[C@]34CC(=O)O[C@@H](c5ccoc5)[C@]3(C)C[C@@H](C(=O)[C@@H]4C)[C@@]21C` it is “inactive”; for `COC(=O)C[C@H]1C(C)(C)[C@@H](O)[C@H](OC(C)=O)[C@@H]2OC3=C(C)C4=CC(=O)O[C@@H](c5ccoc5)[C@]4(C)[C@@H](O)[C@@H]3[C@@]21C` it is “inactive”.
The same measure, in the same setting: the entry for `COC(=O)C[C@H]1C(C)(C)[C@@H](OC(C)=O)[C@H](O)[C@@H]2OC3=C(C)C4=CC(=O)O[C@@H](c5ccoc5)[C@]4(C)[C@@H](O)[C@@H]3[C@@]21C` is “inactive”; for `C=C1[C@@]23CC(=O)C[C@@H](c4ccoc4)[C@]2(C)C[C@@H](OC(C)=O)[C@]1(O)[C@@]1(C)[C@@H](O3)[C@@H](OC(=O)C(C)C)[C@H](O)C(C)(C)[C@@H]1CC(=O)OC` it is “inactive”.
As for `C=C1C2[C@H](O)C[C@@]3(C)[C@H](c4ccoc4)CC(=O)C[C@]13O[C@H]1[C@@H](OC(=O)[C@H](C)CC)[C@H](O)C(C)(C)[C@H](CC(=O)OC)[C@@]21C`, the result was inactive.

The test is the same for the next values; noted with them: Dd2, 72 h.
Regarding `C=C1[C@]2(O)CC[C@@]3(C)[C@H](c4ccoc4)CC(=O)C[C@]13O[C@H]1[C@@H](OC(=O)[C@@H](C)CC)[C@H](O)C(C)(C)[C@H](CC(=O)OC)[C@]12C`, the IC50 came to 12.3 µM.
`COC(=O)C[C@H]1C(C)(C)[C@@H](O)[C@H](OC(=O)C(C)C)[C@@H]2O[C@]34CC(=O)O[C@@H](c5ccoc5)[C@]3(C)C[C@@H](C(=O)[C@@H]4C)[C@@]21C` came in with an IC50 of 28 µM.
Still for that read-out and setting: the result for `C=C1[C@]2(O)CC[C@@]3(C)[C@H](c4ccoc4)CC(=O)C[C@]13O[C@H]1[C@@H](OC(=O)[C@H](C)CC)[C@H](O)C(C)(C)[C@H](CC(=O)OC)[C@]12C` reads 16.3 µM; that for `C=C1[C@]2(O)CC[C@@]3(C)[C@H](c4ccoc4)CC(=O)C[C@]13O[C@H]1[C@@H](OC(=O)C(C)C)[C@H](O)C(C)(C)[C@H](CC(=O)OC)[C@]12C`, 20 µM.
On the same count and under the same terms, the result for `COC(=O)[C@@H](O)[C@H]1C(C)(C)[C@@H](O)[C@H](OC(=O)C(C)C)[C@@H]2O[C@]34CC(=O)O[C@@H](c5ccoc5)[C@]3(C)C[C@@H](C(=O)[C@@H]4C)[C@@]21C` reads 16.9 µM; that for `C[C@@H]1CC[C@H]2[C@@H](C)C(=O)O[C@@H]3O[C@@]4(C)CC[C@@H]1[C@]32OO4` [ARTEMISININ], 0.013 µM; that for `C=C1[C@@]23CC(=O)C[C@@H](c4ccoc4)[C@]2(C)C[C@@H](OC(C)=O)[C@]1(O)[C@@]1(C)[C@@H](O3)[C@@H](OC(=O)[C@H](C)CC)[C@H](O)C(C)(C)[C@@H]1CC(=O)OC`, 23.1 µM.

The values above are taken from ChEMBL document CHEMBL4619768, “Limonoids from Cipadessa baccifera” (J Nat Prod, 2020).
